By pIC50 is commonly meant the negative decadic logarithm of the IC50, by convention in mol/L.

For 27 compounds, IC50 results are on record in patent US7183252B2, “Indole peptidomimetics as thrombin receptor antagonists” (Ortho-McNeil Pharmaceutical, Inc., priority 1999, dated 2007).

pIC50: −log10 of the molar value. Like-named read-outs stand apart in the source and are kept apart here. A value given as a limit tells only on which side of the number the result lay.

One assay has as its system gel-filtered platelets. In words: In vitro inhibition of thrombin-induced gel-filtered platelet aggregation. As to conditions: human gel-filtered platelets, agonist thrombin 50 μL of 1 unit/mL, read-out: Thrmb IC50 (Thrombin-induced aggregation of gel-filtered platelets). It counts as cell-based. Here is the method: In Vitro Inhibition of Thrombin-Induced Gel-Filtered Platelet Aggregation Assay
The percentage of platelet aggregation is calculated as an increase in light transmission of compound-treated platelet concentrate vs. control-treated platelet concentrate. Human blood is obtained from drug free, normal donors in tubes containing 0.13M sodium citrate. Platelet rich plasma (PRP) is collected by centrifugation of whole blood at 200×g for 10 min at 25° C. The PRP (5 mL) is gel filtered through Sepharose 2B (bed volume 50 mL), and the platelet count is adjusted to 2×10^7 platelets per sample. The following constituents are added to a siliconized cuvette: concentrated platelet filtrate and Tyrode's buffer (0.14M NaCl, 0.0027M KCl, 0.012M NaHCO3, 0.76 mM Na2HPO4, 0.0055M glucose, 2 mg/mL BSA and 5.0 mM HEPES @ pH 7.4) in an amount equal to 350 μL 50 μL of 20 mM calcium and 50 μL of the test compound. Aggregation is monitored in a BIODATA aggregometer for the 3 min following the addition of agonist (thrombin 50 μL of 1 unit/mL).
(§1) Table 7 contains IC50 values (μM) of the compounds in a thrombin receptor binding assay, and IC50 values (μM) against platelet aggregation stimulated by thrombin.

Assay [1] concerns the target T1, thrombin receptor (PAR-1) (Homo sapiens, UniProt P25116).
T1 construct: CHRF membranes (Jones, Biochim. Biophys. Acta 1992, 1136, 272) are thawed from −70° C; endogenous in cells; host or cells: CHRF cell membranes
T1 sequence (P25116 22-425): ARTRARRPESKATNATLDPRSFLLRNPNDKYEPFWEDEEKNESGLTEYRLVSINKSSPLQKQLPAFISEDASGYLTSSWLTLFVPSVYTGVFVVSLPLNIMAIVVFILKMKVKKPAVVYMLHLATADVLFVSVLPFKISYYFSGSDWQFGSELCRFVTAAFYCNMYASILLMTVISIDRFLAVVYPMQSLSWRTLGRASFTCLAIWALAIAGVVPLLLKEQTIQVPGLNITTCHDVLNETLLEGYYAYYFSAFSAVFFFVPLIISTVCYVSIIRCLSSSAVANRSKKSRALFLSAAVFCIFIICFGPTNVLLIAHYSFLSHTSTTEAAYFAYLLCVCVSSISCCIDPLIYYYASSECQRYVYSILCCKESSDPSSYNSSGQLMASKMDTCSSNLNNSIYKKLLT
In words: In vitro thrombin receptor binding assay (CHRF membranes). As to conditions: tritiated 721-40 radioligand, read-out: Bndg IC50 (Thrombin receptor binding). How it is done: In Vitro Thrombin Receptor Binding Assay
CHRF membranes (Jones, Biochim. Biophys. Acta 1992, 1136, 272) are thawed from −70° C., centrifuged at maximum speed for 5 min, washed twice with binding buffer (50 mM HEPES containing 5 mM MgCl2 and 0.1% BSA), and re-suspended in binding buffer (25 μg/[…]). 100 μL of membranes are added to the 24-Wallac plates and delivered to the Tomtech apparatus. In a typical experiment, 6 μL of samples (from a 125 μg/mL intermediary plate, 20% DMSO) and 44 μL buffer are delivered to the plates (final conc. of compounds is 3.7 μg/mL, 0.6% DMSO). Similarly, 6 μL 20% DMSO and 44 μL buffer are delivered to both column 1 (NSB) and column 12 (TB). 10 μL Ser-pFPhe-Har-Leu-Har-Lys-Tyr-NH2 (721–40; 500 μM in deionized water) is added to column 1. 50 μL tritiated 721–40 (specific activity 46 Ci/mmol) is added to all the wells. The plates are mixed well for 20 seconds, incubated for 30 min,and then harvested with 10 mM HEPES/138 mM NaCl using the Skatron harvester. The filters (GF/C Brandel FPXLR 296) are presoaked 3 h in 0.5% polyethylenimine in HEPES/0.1M N-acetylglucosamine) are set in saran wrap and dried for 3 min in the microwave, and placed in sample bags (Wallac 1450-432). 4.5 mL scintillation fluid (Wallac, Betaplate Scint 1205-440) is added. The bags are sealed, placed in filter cassettes (Wallac 1450-104), and analyzed on the microbeta counter.
as §1

Regarding `NCCNC(=O)[C@H](Cc1cccs1)NC(=O)[C@H](Cc1ccc(Cl)cc1)NC(=O)Nc1ccc2c(CN3CCCC3)cn(Cc3c(Cl)cccc3Cl)c2c1` [Compound 136], the pIC50 in the assay on gel-filtered platelets (Platelet) was 6.26; in assay [1], 5.96.

As for `COc1ccc(C[C@H](NC(=O)Nc2ccc3c(CN4CCCC4)cn(Cc4ccc5ccccc5c4)c3c2)C(=O)N[C@@H](CCCNC(=N)N)C(=O)NCc2ccccc2)cc1` [Compound 15], the pIC50 in the assay on gel-filtered platelets (Platelet) was 4.93; in assay [1], 5.37.

Take `CC(C)[C@H](NC(=O)[C@H](Cc1ccc(Cl)cc1)NC(=O)Nc1ccc2c(CN3CCCC3)cn(Cc3c(Cl)cccc3Cl)c2c1)C(=O)NCCN` [Compound 148]: the pIC50 was 5.85 in the assay on gel-filtered platelets (Platelet) and 6.85 in assay [1].

Take `NCC[C@H](NC(=O)[C@H](Cc1ccc2ccccc2c1)NC(=O)Nc1ccc2c(CN3CCCC3)cn(Cc3c(Cl)cccc3Cl)c2c1)C(=O)NCc1ccccc1` [Compound 129]: the pIC50 in the assay on gel-filtered platelets (Platelet) is 6.07; in assay [1] it was 5.60.

Turning to `CCCCCCCCNC(=O)[C@H](CCCNC(=N)N)NC(=O)[C@H](Cc1ccc(F)c(F)c1)NC(=O)Nc1ccc2c(CN3CCCCC3)cn(Cc3ccc(F)cc3)c2c1` [Compound 73], the pIC50 with gel-filtered platelets (Platelet) is 5.62; in assay [1] it was 5.12.

Consider `CSCC[C@H](NC(=O)[C@H](Cc1ccc(F)c(F)c1)NC(=O)Nc1ccc2c(CN3CCCC3)cn(Cc3c(Cl)cccc3Cl)c2c1)C(=O)NCCN` [Compound 143], for which the pIC50 was 6.54 in the assay with gel-filtered platelets (Platelet) and 7.70 in assay [1].

In the case of `NC(N)=NCCC[C@H](NC(=O)[C@H](Cc1ccc(F)c(F)c1)NC(=O)Nc1ccc2c(CN3CCCC3)cn(Cc3ccc(F)cc3)c2c1)C(=O)NCc1ccco1` [Compound 82], the results for the pIC50 (in the assay with gel-filtered platelets (Platelet); in assay [1]) were 5.82 and 6.51, respectively.

Take `COc1ccc(C[C@H](NC(=O)Nc2ccc3c(CN4CCCC4)cn(Cc4ccc(OC(F)(F)F)cc4)c3c2)C(=O)N[C@@H](CCCNC(=N)N)C(=O)NCC2CCCCC2)cc1` [Compound 11]: the pIC50 in the assay with gel-filtered platelets was 4.70; in assay [1], 5.60.

Regarding `NC[C@H](NC(=O)[C@H](Cc1ccc(F)c(F)c1)NC(=O)Nc1ccc2c(CN3CCCC3)cn(Cc3c(Cl)cccc3Cl)c2c1)C(=O)NCc1ccccc1` [Compound 101], the pIC50 in the assay on gel-filtered platelets (Platelet) was 6.39; in assay [1], 6.04.

As to `COC[C@H]1CCCN1Cc1cn(Cc2cc(Cl)nc(Cl)c2)c2cc(NC(=O)N[C@@H](Cc3cccc(F)c3)C(=O)N[C@@H](CCCNC(=N)N)C(=O)NCc3ccccc3)ccc12` [Compound 91], the pIC50 is 4.65 in the assay with gel-filtered platelets (Platelet) and 5.40 in assay [1].

On to `NCCC[C@H](NC(=O)[C@H](Cc1ccc(F)c(F)c1)NC(=O)Nc1ccc2c(CN3CCCC3)cn(Cc3c(Cl)cccc3Cl)c2c1)C(=O)Nc1ccccc1` [Compound 127], for which the pIC50 in the assay on gel-filtered platelets (Platelet) is 6.03; in assay [1], 5.62.

Regarding `CC(=N)NCC[C@H](NC(=O)[C@H](Cc1ccc(F)c(F)c1)NC(=O)Nc1ccc2c(CN3CCCC3)cn(Cc3c(Cl)cccc3Cl)c2c1)C(=O)NCc1ccccc1` [Compound 118], the pIC50 with gel-filtered platelets (Platelet) is 6.55; in assay [1], 6.37.

Take `N=C(N)NCCC[C@H](NC(=O)[C@H](Cc1ccccc1Cl)NC(=O)Nc1ccc2c(CN3CCCCC3)cn(Cc3c(Cl)cccc3Cl)c2c1)C(=O)NCc1ccccc1` [Compound 86]: the pIC50 with gel-filtered platelets (Platelet) was 5.54; in assay [1] it was 6.29.

As to `NC[C@H](NC(=O)[C@H](Cc1ccc(Cl)cc1)NC(=O)Nc1ccc2c(CN3CCCC3)cn(Cc3c(Cl)cccc3Cl)c2c1)C(=O)NCc1ccccc1` [Compound 79], the pIC50 in the assay with gel-filtered platelets (Platelet) is 5.89; in assay [1] it was 6.77.

For the compound `COc1ccc(C[C@H](NC(=O)Nc2ccc3c(CN4CCCCC4)cn(Cc4ccc(F)cc4)c3c2)C(=O)N[C@@H](CCCNC(=N)N)C(=O)NCC2CCCCC2)cc1` [Compound 8], the pIC50 in the assay with gel-filtered platelets (Platelet) was 5.10; in assay [1], 5.64.

Regarding `Cc1coc(CNC(=O)[C@H](CCN)NC(=O)[C@H](Cc2ccc(F)c(F)c2)NC(=O)Nc2ccc3c(CN4CCCC4)cn(Cc4c(Cl)cccc4Cl)c3c2)c1` [Compound 159], the pIC50 in the assay on gel-filtered platelets is 6.37; in assay [1], 6.15.

Regarding `Cc1ccccc1Cn1cc(CN2CCCC2)c2ccc(NC(=O)N[C@@H](Cc3cccc(C(F)(F)F)c3)C(=O)N[C@@H](CCCNC(=N)N)C(=O)NCc3ccccc3)cc21` [Compound 54], the results for the pIC50 (in the assay with gel-filtered platelets (Platelet); in assay [1]) were 6.30 and 4.80, respectively.

As for `NCCNC(=O)[C@H](Cc1ccncc1)NC(=O)[C@H](Cc1ccc(F)c(F)c1)NC(=O)c1ccc2c(CN3CCCC3)cn(Cc3c(Cl)cccc3Cl)c2c1` [Compound 175, L-Alaninamide, N-[[1-[(2,6-dichlorophenyl)methyl]-3-(1-pyrrolidinylmethyl)-1H-indol-6-yl]carbonyl]-3,4-difluoro-L-phenylalanyl-N-(2-aminoethyl)-3-(4-pyridinyl)-], the pIC50 with gel-filtered platelets (Platelet) is 5.80; in assay [1] it was 7.05.

With `NCCC[C@H](NC(=O)[C@H](Cc1ccc(F)c(F)c1)NC(=O)Nc1ccc2c(CN3CCCC3)cn(Cc3c(Cl)cccc3Cl)c2c1)C(=O)NCc1ccc(Cl)c(Cl)c1` [Compound 112], the pIC50 in the assay with gel-filtered platelets (Platelet) was 6.03; in assay [1], 5.70.

As for `NCCNC(=O)[C@H](Cc1ccccc1)NC(=O)[C@H](Cc1ccc(Cl)cc1)NC(=O)Nc1ccc2c(CN3CCCC3)cn(Cc3c(Cl)cccc3Cl)c2c1` [Compound 133], the pIC50 in the assay on gel-filtered platelets (Platelet) is 6.07; in assay [1], 5.82.

As to `COc1ccc(C[C@H](NC(=O)Nc2ccc3c(CN4CCOCC4)cn(Cc4ccc(F)cc4)c3c2)C(=O)N[C@@H](CCCN=C(N)N)C(=O)NCc2ccccc2)cc1` [Compound 40], the pIC50 is less than 5.00 in the assay on gel-filtered platelets (Platelet) and 5.41 in assay [1].

Turning to `COc1ccccc1CCNC(=O)[C@H](CCCNC(=N)N)NC(=O)[C@H](Cc1ccc(F)c(F)c1)NC(=O)Nc1ccc2c(CN3CCCC3)cn(Cc3ccccc3C)c2c1` [Compound 65], the values for the pIC50 (with gel-filtered platelets (Platelet); in assay [1]) were 6.00 and 6.66, respectively.

Turning to `Cc1ccccc1Cn1cc(CN2CCCC2)c2ccc(NC(=O)N[C@@H](Cc3ccc(OCc4ccccc4)cc3)C(=O)N[C@@H](CCCN=C(N)N)C(=O)NCc3ccccc3)cc21` [Compound 36], the negative logarithm of the IC50 (pIC50) in the assay with gel-filtered platelets (Platelet) is 5.17; in assay [1], 4.78.

For the compound `NCCC[C@H](NC(=O)[C@H](Cc1ccc(F)c(F)c1)NC(=O)Nc1ccc2c(CN3CCCC3)cn(Cc3c(Cl)cccc3Cl)c2c1)C(=O)NCc1ccccc1` [Compound 66], the pIC50 is 6.62 in the assay with gel-filtered platelets (Platelet) and 5.96 in assay [1].

In the case of `COc1ccc(C[C@H](NC(=O)Nc2ccc3c(CNC4CCCC4)cn(Cc4ccc(F)cc4)c3c2)C(=O)N[C@@H](CCCNC(=N)N)C(=O)NCc2ccccc2)cc1` [Compound 3], the values for the pIC50 (with gel-filtered platelets (Platelet); in assay [1]) were 4.67 and 4.97, respectively.

For `COc1ccc(C[C@H](NC(=O)Nc2ccc3c(CN4CCCC4)cn(Cc4ccc(C)cc4)c3c2)C(=O)N[C@@H](CCCN=C(N)N)C(=O)NCc2ccccc2)cc1` [Compound 2], the pIC50 in the assay with gel-filtered platelets (Platelet) is 5.11; in assay [1] it was 4.47.

`COc1ccc(C[C@H](NC(=O)Nc2ccc3c(CN4CCCC4)cn(Cc4ccc(C#N)cc4)c3c2)C(=O)N[C@@H](CCCNC(=N)N)C(=O)NCc2ccccc2)cc1` [Compound 13]: the pIC50 in the assay with gel-filtered platelets (Platelet) was 4.79; in assay [1], 5.35.
